According to ChEMBL document CHEMBL4507317, “Data for DCP probe BAY-899” (2021):

What was measured:
[1] = system: Tyrosine-protein kinase ABL1 (Homo sapiens), P00519 [F317I]; details: Compound concentration 1000.0 nM
[2] = system: Tyrosine-protein kinase ABL1 (Homo sapiens), P00519 [F317L]; details: Compound concentration 1000.0 nM
[3] = system: Tyrosine-protein kinase ABL1 (Homo sapiens), P00519 [Q252H]; details: Compound concentration 1000.0 nM
[4] = target: Activin receptor type-1-like (Homo sapiens) (UniProt P37023); details: Compound concentration 1000.0 nM
[5] = system: ALK tyrosine kinase receptor (Homo sapiens), Q9UM73 [C1156Y]; details: Compound concentration 1000.0 nM
[6] = target: Mitogen-activated protein kinase kinase kinase 6 (Homo sapiens) (UniProt O95382); details: Compound concentration 1000.0 nM
[7] = target: Serine/threonine-protein kinase BRSK1 (Homo sapiens) (UniProt Q8TDC3); details: Compound concentration 1000.0 nM
Sequence of Serine/threonine-protein kinase BRSK1 (Homo sapiens) (Q8TDC3 whole entry): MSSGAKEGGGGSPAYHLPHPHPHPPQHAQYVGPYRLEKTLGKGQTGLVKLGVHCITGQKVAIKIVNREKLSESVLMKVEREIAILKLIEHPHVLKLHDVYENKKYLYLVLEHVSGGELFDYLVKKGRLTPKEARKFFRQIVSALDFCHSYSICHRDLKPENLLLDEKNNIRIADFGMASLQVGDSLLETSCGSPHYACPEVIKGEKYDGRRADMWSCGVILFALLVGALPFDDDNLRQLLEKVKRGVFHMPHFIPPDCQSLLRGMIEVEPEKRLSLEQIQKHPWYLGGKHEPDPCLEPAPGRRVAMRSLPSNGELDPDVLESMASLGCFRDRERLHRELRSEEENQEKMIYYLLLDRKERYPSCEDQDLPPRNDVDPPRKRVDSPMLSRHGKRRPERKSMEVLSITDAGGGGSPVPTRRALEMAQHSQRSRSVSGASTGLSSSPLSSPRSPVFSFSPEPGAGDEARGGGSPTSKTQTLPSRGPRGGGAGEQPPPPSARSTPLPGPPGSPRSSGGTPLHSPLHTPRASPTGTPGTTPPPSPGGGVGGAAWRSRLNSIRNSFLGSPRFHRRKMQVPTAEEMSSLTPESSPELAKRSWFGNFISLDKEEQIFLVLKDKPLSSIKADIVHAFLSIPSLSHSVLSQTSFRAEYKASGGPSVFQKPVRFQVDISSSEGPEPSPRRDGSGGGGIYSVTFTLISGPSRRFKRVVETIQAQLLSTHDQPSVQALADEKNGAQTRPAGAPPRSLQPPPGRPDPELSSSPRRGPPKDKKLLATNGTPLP

[8] = target: Cyclin-dependent kinase 13 (Homo sapiens) (UniProt Q14004); details: Compound concentration 1000.0 nM
[9] = target: Serine/threonine-protein kinase Chk1 (Homo sapiens) (UniProt O14757); details: Compound concentration 1000.0 nM
[10] = target: Serine/threonine-protein kinase 17B (Homo sapiens) (UniProt O94768); details: Compound concentration 1000.0 nM
[11] = target: Ephrin type-B receptor 4 (Homo sapiens) (UniProt P54760); details: Compound concentration 1000.0 nM
[12] = target: Receptor tyrosine-protein kinase erbB-4 (Homo sapiens) (UniProt Q15303); details: Compound concentration 1000.0 nM
[13] = target: Fibroblast growth factor receptor 4 (Homo sapiens) (UniProt P22455); details: Compound concentration 1000.0 nM
[14] = target: Beta-adrenergic receptor kinase 1 (Homo sapiens) (UniProt P25098); details: Compound concentration 1000.0 nM
[15] = target: Inhibitor of nuclear factor kappa-B kinase subunit beta (Homo sapiens) (UniProt O14920); details: Compound concentration 1000.0 nM
Sequence of Inhibitor of nuclear factor kappa-B kinase subunit beta (Homo sapiens) (O14920 whole entry): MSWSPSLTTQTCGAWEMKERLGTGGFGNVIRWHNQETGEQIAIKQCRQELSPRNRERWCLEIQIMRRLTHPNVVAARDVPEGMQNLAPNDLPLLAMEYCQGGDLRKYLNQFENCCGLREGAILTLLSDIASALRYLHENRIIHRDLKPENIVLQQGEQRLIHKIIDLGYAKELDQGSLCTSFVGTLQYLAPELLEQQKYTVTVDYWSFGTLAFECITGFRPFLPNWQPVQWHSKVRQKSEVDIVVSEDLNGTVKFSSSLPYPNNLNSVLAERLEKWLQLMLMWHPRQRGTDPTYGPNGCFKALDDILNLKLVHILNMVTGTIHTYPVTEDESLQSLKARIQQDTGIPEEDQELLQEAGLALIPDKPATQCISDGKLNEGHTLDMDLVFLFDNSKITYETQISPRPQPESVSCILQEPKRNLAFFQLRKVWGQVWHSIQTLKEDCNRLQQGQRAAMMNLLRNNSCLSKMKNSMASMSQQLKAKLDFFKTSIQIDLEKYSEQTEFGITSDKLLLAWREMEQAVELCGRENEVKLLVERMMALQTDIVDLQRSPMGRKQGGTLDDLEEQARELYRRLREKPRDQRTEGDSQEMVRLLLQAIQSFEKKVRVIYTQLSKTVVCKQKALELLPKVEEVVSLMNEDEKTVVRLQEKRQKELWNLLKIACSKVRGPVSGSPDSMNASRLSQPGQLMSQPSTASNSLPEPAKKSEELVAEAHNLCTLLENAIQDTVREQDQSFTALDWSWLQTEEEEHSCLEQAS

[16] = system: Mast/stem cell growth factor receptor Kit (Homo sapiens), P10721 [D816V]; details: Compound concentration 1000.0 nM
Sequence of Mast/stem cell growth factor receptor Kit (Homo sapiens), P10721 [D816V] (P10721 whole entry D816V): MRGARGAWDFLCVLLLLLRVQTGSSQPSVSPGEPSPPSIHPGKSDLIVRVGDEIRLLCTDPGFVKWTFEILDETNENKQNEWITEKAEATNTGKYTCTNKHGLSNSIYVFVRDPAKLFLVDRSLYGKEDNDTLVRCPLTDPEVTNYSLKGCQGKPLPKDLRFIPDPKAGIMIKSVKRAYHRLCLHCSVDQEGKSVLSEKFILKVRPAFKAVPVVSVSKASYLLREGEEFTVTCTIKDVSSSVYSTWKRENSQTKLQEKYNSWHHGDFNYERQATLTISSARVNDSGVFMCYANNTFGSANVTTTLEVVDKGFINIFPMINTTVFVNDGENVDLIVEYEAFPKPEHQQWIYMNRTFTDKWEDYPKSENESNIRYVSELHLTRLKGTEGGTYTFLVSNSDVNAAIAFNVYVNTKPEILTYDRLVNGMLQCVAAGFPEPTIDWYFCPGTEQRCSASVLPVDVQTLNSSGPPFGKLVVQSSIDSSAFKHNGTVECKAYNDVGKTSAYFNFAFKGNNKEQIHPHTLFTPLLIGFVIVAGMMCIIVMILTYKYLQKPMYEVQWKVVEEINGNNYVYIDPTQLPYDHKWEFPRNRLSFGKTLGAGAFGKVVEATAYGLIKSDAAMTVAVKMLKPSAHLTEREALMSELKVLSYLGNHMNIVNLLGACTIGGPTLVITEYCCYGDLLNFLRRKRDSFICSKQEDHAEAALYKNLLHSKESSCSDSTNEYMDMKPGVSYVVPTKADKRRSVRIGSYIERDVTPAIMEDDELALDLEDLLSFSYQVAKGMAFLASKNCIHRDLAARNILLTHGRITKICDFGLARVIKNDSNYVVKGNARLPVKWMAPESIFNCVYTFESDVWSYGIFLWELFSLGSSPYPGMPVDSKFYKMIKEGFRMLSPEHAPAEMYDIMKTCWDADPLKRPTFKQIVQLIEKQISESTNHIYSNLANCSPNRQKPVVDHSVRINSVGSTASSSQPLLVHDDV

[17] = target: MAP kinase-activated protein kinase 5 (Homo sapiens) (UniProt Q8IW41); details: Compound concentration 1000.0 nM
[18] = target: Serine/threonine-protein kinase MARK2 (Homo sapiens) (UniProt Q7KZI7); details: Compound concentration 1000.0 nM
[19] = target: MAP/microtubule affinity-regulating kinase 3 (Homo sapiens) (UniProt P27448); details: Compound concentration 1000.0 nM
[20] = target: Misshapen-like kinase 1 (Homo sapiens) (UniProt Q8N4C8); details: Compound concentration 1000.0 nM
[21] = target: MAP kinase-interacting serine/threonine-protein kinase 2 (Homo sapiens) (UniProt Q9HBH9); details: Compound concentration 1000.0 nM
Sequence of MAP kinase-interacting serine/threonine-protein kinase 2 (Homo sapiens) (Q9HBH9 whole entry, looked up): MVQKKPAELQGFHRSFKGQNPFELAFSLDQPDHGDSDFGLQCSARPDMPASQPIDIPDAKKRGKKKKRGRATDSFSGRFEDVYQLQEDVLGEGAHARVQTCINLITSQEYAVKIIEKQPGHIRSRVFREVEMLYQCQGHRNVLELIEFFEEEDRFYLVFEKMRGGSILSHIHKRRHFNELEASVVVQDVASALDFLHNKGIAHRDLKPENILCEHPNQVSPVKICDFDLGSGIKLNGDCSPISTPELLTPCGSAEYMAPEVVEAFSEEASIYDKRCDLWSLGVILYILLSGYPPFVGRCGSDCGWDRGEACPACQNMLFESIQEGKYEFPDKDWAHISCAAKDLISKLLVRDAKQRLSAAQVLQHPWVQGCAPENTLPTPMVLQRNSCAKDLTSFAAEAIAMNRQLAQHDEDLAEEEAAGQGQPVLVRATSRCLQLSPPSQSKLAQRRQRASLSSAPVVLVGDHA

[22] = target: Serine/threonine-protein kinase Nek3 (Homo sapiens) (UniProt P51956); details: Compound concentration 1000.0 nM
[23] = target: Mitogen-activated protein kinase kinase kinase 14 (Homo sapiens) (UniProt Q99558); details: Compound concentration 1000.0 nM
[24] = target: Cyclin-dependent kinase 18 (Homo sapiens) (UniProt Q07002); details: Compound concentration 1000.0 nM
[25] = target: Cyclin-dependent kinase 15 (Homo sapiens) (UniProt Q96Q40); details: Compound concentration 1000.0 nM
[26] = system: Phosphatidylinositol 4,5-bisphosphate 3-kinase catalytic subunit alpha isoform (Homo sapiens), P42336 [M1043I]; details: Compound concentration 1000.0 nM
[27] = target: Phosphatidylinositol 4,5-bisphosphate 3-kinase catalytic subunit beta isoform (Homo sapiens) (UniProt P42338); details: Compound concentration 1000.0 nM
[28] = target: Serine/threonine-protein kinase N2 (Homo sapiens) (UniProt Q16513); details: Compound concentration 1000.0 nM
[29] = target: Serine/threonine-protein kinase PknB (Mycobacterium tuberculosis) (UniProt P9WI81); details: Compound concentration 1000.0 nM
[30] = target: Protein kinase C iota type (Homo sapiens) (UniProt P41743); details: Compound concentration 1000.0 nM
[31] = target: cAMP-dependent protein kinase catalytic subunit PRKX (Homo sapiens) (UniProt P51817); details: Compound concentration 1000.0 nM
[32] = target: Ribosomal protein S6 kinase alpha-2 (Homo sapiens) (UniProt Q15349); details: Compound concentration 1000.0 nM
[33] = target: Tyrosine-protein kinase Srms (Homo sapiens) (UniProt Q9H3Y6); details: Compound concentration 1000.0 nM
Sequence of Tyrosine-protein kinase Srms (Homo sapiens) (Q9H3Y6 whole entry): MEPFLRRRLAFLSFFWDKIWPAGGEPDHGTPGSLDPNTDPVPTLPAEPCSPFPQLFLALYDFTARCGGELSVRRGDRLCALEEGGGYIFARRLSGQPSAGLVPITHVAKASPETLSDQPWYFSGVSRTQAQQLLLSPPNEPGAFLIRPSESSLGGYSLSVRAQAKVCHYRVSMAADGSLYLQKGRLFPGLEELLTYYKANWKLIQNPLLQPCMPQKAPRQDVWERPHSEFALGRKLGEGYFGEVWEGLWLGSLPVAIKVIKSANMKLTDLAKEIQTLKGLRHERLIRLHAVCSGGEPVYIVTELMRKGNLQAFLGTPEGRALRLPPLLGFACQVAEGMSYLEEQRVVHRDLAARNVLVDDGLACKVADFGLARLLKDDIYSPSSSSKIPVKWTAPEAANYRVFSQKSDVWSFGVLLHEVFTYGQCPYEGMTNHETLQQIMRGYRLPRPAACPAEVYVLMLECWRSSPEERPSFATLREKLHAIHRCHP

[34] = target: Serine/threonine-protein kinase TAO3 (Homo sapiens) (UniProt Q9H2K8); details: Compound concentration 1000.0 nM
[35] = target: TGF-beta receptor type-2 (Homo sapiens) (UniProt P37173); details: Compound concentration 1000.0 nM
[36] = target: TRAF2 and NCK-interacting protein kinase (Homo sapiens) (UniProt Q9UKE5); details: Compound concentration 1000.0 nM
[37] = target: Transient receptor potential cation channel subfamily M member 6 (Homo sapiens) (UniProt Q9BX84); details: Compound concentration 1000.0 nM
[38] = target: Dual specificity protein kinase TTK (Homo sapiens) (UniProt P33981); details: Compound concentration 1000.0 nM
Sequence of Dual specificity protein kinase TTK (Homo sapiens) (P33981 whole entry): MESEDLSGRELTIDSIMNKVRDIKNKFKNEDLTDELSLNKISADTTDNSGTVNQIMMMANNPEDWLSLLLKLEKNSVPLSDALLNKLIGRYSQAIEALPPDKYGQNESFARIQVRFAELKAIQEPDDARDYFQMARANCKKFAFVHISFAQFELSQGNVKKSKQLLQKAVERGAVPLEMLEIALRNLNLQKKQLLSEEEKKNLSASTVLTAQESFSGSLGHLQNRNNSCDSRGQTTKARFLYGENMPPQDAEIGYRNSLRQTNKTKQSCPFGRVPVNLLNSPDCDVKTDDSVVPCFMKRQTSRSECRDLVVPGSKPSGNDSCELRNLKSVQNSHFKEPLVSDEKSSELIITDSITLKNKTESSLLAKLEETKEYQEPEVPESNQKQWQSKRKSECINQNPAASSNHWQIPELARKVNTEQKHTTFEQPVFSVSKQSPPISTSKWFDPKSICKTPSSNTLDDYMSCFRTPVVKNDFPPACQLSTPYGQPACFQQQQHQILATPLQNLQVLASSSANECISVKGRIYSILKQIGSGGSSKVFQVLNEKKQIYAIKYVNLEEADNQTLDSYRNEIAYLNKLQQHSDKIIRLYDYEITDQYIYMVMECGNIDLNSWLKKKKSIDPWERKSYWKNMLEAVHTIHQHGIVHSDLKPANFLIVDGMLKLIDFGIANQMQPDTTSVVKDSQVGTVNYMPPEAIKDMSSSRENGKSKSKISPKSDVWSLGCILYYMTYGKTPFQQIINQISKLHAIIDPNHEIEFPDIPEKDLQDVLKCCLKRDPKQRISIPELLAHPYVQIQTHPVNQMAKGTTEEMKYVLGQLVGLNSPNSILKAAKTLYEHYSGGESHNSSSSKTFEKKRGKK

[39] = target: Serine/threonine-protein kinase 32C (Homo sapiens) (UniProt Q86UX6); details: Compound concentration 1000.0 nM
[40] = target: Tyrosine-protein kinase Yes (Homo sapiens) (UniProt P07947); details: Compound concentration 1000.0 nM
[41] = target: Serine/threonine-protein kinase 25 (Homo sapiens) (UniProt O00506); details: Compound concentration 1000.0 nM
[42] = target: 5-hydroxytryptamine receptor 2B (Homo sapiens, UniProt P41595); details: Compound concentration 10.0 uM
Sequence of 5-hydroxytryptamine receptor 2B (P41595 whole entry): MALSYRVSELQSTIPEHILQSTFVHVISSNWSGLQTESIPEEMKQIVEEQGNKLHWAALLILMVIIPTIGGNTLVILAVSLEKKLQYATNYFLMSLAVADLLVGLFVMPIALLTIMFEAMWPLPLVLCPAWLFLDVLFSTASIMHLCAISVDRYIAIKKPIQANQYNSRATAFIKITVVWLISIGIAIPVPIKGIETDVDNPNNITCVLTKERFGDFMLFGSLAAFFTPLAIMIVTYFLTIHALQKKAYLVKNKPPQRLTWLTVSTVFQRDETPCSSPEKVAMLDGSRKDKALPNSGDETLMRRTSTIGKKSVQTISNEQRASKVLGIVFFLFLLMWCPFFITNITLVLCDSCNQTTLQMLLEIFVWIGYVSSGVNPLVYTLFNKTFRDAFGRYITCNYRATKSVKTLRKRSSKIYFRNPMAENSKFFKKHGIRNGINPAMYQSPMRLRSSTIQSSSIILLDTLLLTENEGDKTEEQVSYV

[43] = target: GABA-A receptor; anion channel (Rattus norvegicus) (UniProt O09028+P15431+P18506+P18508+P19969+P20236+P23574+P23576+P28471+P28473+P30191+P62813+P63079+P63138+Q91ZM7+Q9ES14); details: Compound concentration 10.0 uM
[44] = target: Histamine H3 receptor (Homo sapiens) (UniProt Q9Y5N1); details: Compound concentration 10.0 uM

O=C(Nc1cnc(Oc2ccc(F)cc2)nc1)N1CCc2ncccc2[C@@H]1c1ccc(F)cc1 [BAY-899]
inactive: residual activity [1] 100% | residual activity [2] 83% | residual activity [3] 91% | residual activity [4] 99% | residual activity [5] 90% | residual activity [6] 94% | residual activity [7] 87% | residual activity [8] 100% | residual activity [9] 84% | residual activity [10] 92% | residual activity [11] 100% | residual activity [12] 97% | residual activity [13] 98% | residual activity [14] 90% | residual activity [15] 100% | residual activity [16] 98% | residual activity [17] 91% | residual activity [18] 90% | residual activity [19] 100% | residual activity [20] 100% | residual activity [21] 94% | residual activity [22] 67% | residual activity [23] 100% | residual activity [24] 96% | residual activity [25] 93% | residual activity [26] 100% | residual activity [27] 84% | residual activity [28] 78% | residual activity [29] 90% | residual activity [30] 98% | residual activity [31] 93% | residual activity [32] 79% | residual activity [33] 95% | residual activity [34] 100% | residual activity [35] 100% | residual activity [36] 100% | residual activity [37] 100% | residual activity [38] 86% | residual activity [39] 96% | residual activity [40] 98% | residual activity [41] 82% | inhibition [42] 37.6% | inhibition [43] 19.4% | inhibition [44] -8.41%

O=C(Nc1ccc(Oc2ccc(F)cc2)cc1)N1CCc2ncccc2[C@H]1c1ccc(F)cc1 [BAY-897]
active: inhibition [42] 52.4%
inactive: residual activity [1] 100% | residual activity [2] 86% | residual activity [3] 90% | residual activity [4] 81% | residual activity [5] 93% | residual activity [6] 100% | residual activity [7] 100% | residual activity [8] 100% | residual activity [9] 100% | residual activity [10] 89% | residual activity [11] 100% | residual activity [12] 82% | residual activity [13] 95% | residual activity [14] 92% | residual activity [15] 100% | residual activity [16] 100% | residual activity [17] 75% | residual activity [18] 82% | residual activity [19] 100% | residual activity [20] 99% | residual activity [21] 91% | residual activity [22] 64% | residual activity [23] 61% | residual activity [24] 98% | residual activity [25] 86% | residual activity [26] 89% | residual activity [27] 77% | residual activity [28] 80% | residual activity [29] 86% | residual activity [30] 100% | residual activity [31] 88% | residual activity [32] 94% | residual activity [33] 94% | residual activity [34] 92% | residual activity [35] 91% | residual activity [36] 100% | residual activity [37] 100% | residual activity [38] 94% | residual activity [39] 75% | residual activity [40] 100% | residual activity [41] 100% | inhibition [43] 26.9% | inhibition [44] 3.57%
